From patent publication US11667602B2, “Compounds and their use” (AstraZeneca AB, priority 2020, dated 2023)
Converted amounts (≈) assume the structure as drawn. Read-outs that look alike come from different tables or passages of the source.

Tests used:
[1] = Human Plasma Protein Binding (Test B); type: in vitro ADME; details: fraction unbound (fu)
In short: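 Human plasma protein binding run per the published Wernevik et al. (2020) integrated DMPK panel protocol. Values are fraction unbound (fu, % free); repeat runs averaged arithmetically.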

[2] = Human Liver Microsomal Stability (Test C); type: in vitro ADME
In short: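 Human liver microsome incubation per the Wernevik et al. integrated DMPK panel protocol. Intrinsic clearance reported as CLint in μl/min/mg protein, averaged arithmetically over repeat runs.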

[3] = Human Hepatocyte Stability (Test D); type: in vitro ADME; details: cryopreserved pooled human hepatocytes (LiverPool 10-Donor), geometric mean if run multiple times
In short: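 Pooled 10-donor cryopreserved human hepatocytes (≥80% viable) in L-15 medium at 0.25×10^6 cells per 0.25 mL well. Compound added from 100 μM acetonitrile solution; incubated at 37 °C with shaking, acetonitrile-quenched, LC-MS analysed. Clint (μL/min/10^6 cells) from ln % parent vs time slope; geometric mean of repeat runs.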

[4] = Rat Hepatocyte Stability (Test E); type: in vitro ADME; details: geometric mean if run multiple times
In short: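 Run per the published AstraZeneca-type rat hepatocyte stability protocol (Wernevik et al. panel). Values are mean intrinsic clearance, Clint in μl/min/10^6 cells; geometric mean used for repeated runs.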

Solubility (Test F) = type: physicochemical; details: arithmetic mean if run multiple times
Description: The assay was conducted according to the Solubility Assay described in pages 164-167 of Wernevik, J. et al., “A Fully Integrated Assay Panel for Early Drug Metabolism and Pharmacokinetics Profiling”, Assay and Drug Development Technologies, 2020, 18(4), 157-179. Data are reported in Table 36 as solubility ([…]. Where the assay was run multiple times for the same compound, the arithmetic mean is reported.

human RXFP1 = target: T1, human RXFP1 (Homo sapiens, UniProt Q9HBX9); experiment: RXFP1 Hu cAMP (Test A); type: cell-based; set-up: expressed in transfected cells; host or cells: Jump-In T-REx CHO-K1 cells (ThermoFisher), induced with 10 ng/ml doxycycline for 24 h
T1 sequence (Q9HBX9 1-757): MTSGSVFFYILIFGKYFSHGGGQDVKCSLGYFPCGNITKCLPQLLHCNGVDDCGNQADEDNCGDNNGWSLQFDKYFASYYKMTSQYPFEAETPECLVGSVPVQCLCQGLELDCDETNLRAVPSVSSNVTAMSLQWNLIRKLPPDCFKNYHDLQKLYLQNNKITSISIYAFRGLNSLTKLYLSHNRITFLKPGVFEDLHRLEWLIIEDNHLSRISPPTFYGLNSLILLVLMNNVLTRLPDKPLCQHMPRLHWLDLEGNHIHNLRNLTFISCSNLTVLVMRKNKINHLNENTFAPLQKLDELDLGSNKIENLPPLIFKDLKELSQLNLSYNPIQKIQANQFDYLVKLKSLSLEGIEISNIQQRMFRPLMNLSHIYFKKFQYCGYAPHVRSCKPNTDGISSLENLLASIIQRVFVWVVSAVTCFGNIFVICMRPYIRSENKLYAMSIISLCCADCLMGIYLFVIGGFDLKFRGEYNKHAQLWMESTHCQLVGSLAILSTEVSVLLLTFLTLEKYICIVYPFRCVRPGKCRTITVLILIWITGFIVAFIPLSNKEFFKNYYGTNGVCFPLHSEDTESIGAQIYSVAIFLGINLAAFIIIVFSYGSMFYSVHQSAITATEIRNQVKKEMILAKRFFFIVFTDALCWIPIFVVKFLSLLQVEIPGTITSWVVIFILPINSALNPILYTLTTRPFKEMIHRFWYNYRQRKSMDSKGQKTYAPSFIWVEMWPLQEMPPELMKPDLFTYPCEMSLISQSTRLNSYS
In short: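 Cells: CHO-K1 stably carrying human RXFP1, expressed after 24 h 10 ng/ml doxycycline; 0.5 mM IBMX final, HTRF detection after 2 h at room temperature.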

[5] = RXFP1 Hu cAMP, read-out: Test A EC50

| Test B Human Plasma Protein Binding (% free) [1] [% free] | microsomal CLint ([2]; human, liver microsomes) [µL/min/mg] | hepatocyte CLint at 1 µM ([3]; human) [µL/min/1e6 cells] | hepatocyte CLint ([4]; rat, hepatocytes) [µL/min/1e6 cells] | solubility (Solubility (Test F)) [µM] | Test A Sinf (human RXFP1; RXFP1 Hu cAMP) [%] | EC50 (human RXFP1; [5]) [nM] | Compound | microsomal CLint ([2]; human liver microsomes) [µL/min/mg] | hepatocyte CLint at 1 µM [3] [µL/min/1e6 cells] | hepatocyte CLint ([4]; rat hepatocytes) [µL/min/1e6 cells] | EC50 (human RXFP1; Test A EC50, RXFP1 Hu cAMP) [nM] |
| --- | --- | --- | --- | --- | --- | --- | --- | --- | --- | --- | --- |
| 1.2 | 24 | 4.6 | 14 | 18 (≈ 12.7 µg/mL) | 110 | 77 | COc1cc(F)c(-c2ccc(C[C@H](C(=O)O)N(C)C)cc2)cc1C(=O)N[C@@H]1[C@H]2CC[C@H](C2)[C@@H]1C(=O)Nc1cccc(S(=O)(=O)C(F)(F)F)c1 [Example 292, (R)-2-(Dimethylamino)-3-(2′-fluoro-4′-methoxy-5′-(((1S,2R,3S,4R)-3-((3-((trifluoromethyl)sulfonyl)phenyl)carbamoyl)bicyclo[2.2.1]heptan-2-yl)carbamoyl)-[1,1′-biphenyl]-4-yl)propanoic acid] |  |  |  |  |
| 2.1 | 22 | 5 | 13 | 990 (≈ 654 µg/mL) | 95 | 130 | COc1cc(F)c(O[C@H]2CC[C@@](C)(C(=O)O)CC2)cc1C(=O)NC1CCOCC1C(=O)Nc1cccc(S(=O)(=O)C(F)(F)F)c1 (single isomer, unassigned) [Example 518, (1R,4s)-4-(2-Fluoro-4-methoxy-5-(((3S*,4S*)-3-((3-((trifluoromethyl)sulfonyl)phenyl)carbamoyl)tetrahydro-2H-pyran-4-yl)carbamoyl)phenoxy)-1-methylcyclohexane-1-carboxylic acid] |  |  |  |  |
| <0.32 | 16 | 32 | 18 | 900 (≈ 571 µg/mL) | 101 | 190 | COc1cc(F)c(-c2ccc(C(=O)O)cc2)cc1C(=O)N[C@@H]1[C@H]2CC[C@H](C2)[C@@H]1C(=O)Nc1cccc(S(=O)(=O)C(F)(F)F)c1 [Example 250] |  |  |  |  |
| 0.82 | 70 | 97 | > 300 | 220 (≈ 145 µg/mL) | 115 | 540 | COc1cc(F)c(OCCCCCCC(=O)O)cc1C(=O)N[C@@H]1[C@H]2CC[C@H](C2)[C@@H]1C(=O)Nc1cccc(S(=O)(=O)C(F)(F)F)c1 [Example 436] |  |  |  |  |
| 2.2 | 58 | 26 | 110 | 900 (≈ 603 µg/mL) | 96 | 99 | COc1cc(F)c(-c2ncc(CCC(=O)O)s2)cc1C(=O)N[C@@H]1[C@H]2CC[C@H](C2)[C@@H]1C(=O)Nc1cccc(S(=O)(=O)C(F)(F)F)c1 [Example 243] |  |  |  |  |
| 2 | 26 | 13 | 12 | 1000 (≈ 653 µg/mL) | 101 | 550 | COc1cc(F)c(-c2cnn(CCC(=O)O)c2)cc1C(=O)N[C@@H]1[C@H]2CC[C@H](C2)[C@@H]1C(=O)Nc1cccc(S(=O)(=O)C(F)(F)F)c1 [Example 255] |  |  |  |  |

Further lines, the compound ahead of its results:

| Compound | Test B Human Plasma Protein Binding (% free) [1] [% free] | microsomal CLint ([2]; human, liver microsomes) [µL/min/mg] | hepatocyte CLint at 1 µM ([3]; human) [µL/min/1e6 cells] | hepatocyte CLint ([4]; rat, hepatocytes) [µL/min/1e6 cells] | solubility (Solubility (Test F)) [µM] | Test A Sinf (human RXFP1; RXFP1 Hu cAMP) [%] | EC50 (human RXFP1; [5]) [nM] | microsomal CLint ([2]; human liver microsomes) [µL/min/mg] | hepatocyte CLint at 1 µM [3] [µL/min/1e6 cells] | hepatocyte CLint ([4]; rat hepatocytes) [µL/min/1e6 cells] | EC50 (human RXFP1; Test A EC50, RXFP1 Hu cAMP) [nM] |
| --- | --- | --- | --- | --- | --- | --- | --- | --- | --- | --- | --- |
| COc1cc(C#N)c(O[C@H]2CC[C@@](C)(C(=O)O)CC2)cc1C(=O)N[C@@H]1[C@H]2CC[C@H](C2)[C@@H]1C(=O)NCC(F)(F)C(F)(F)F [Example 102] | 12 | 4.4 | 1.9 | 14 | 820 (≈ 493 µg/mL) | 122 | 160 |  |  |  |  |
| COc1cc(C#N)c(O[C@H]2CC[C@@](C)(C(=O)O)CC2)cc1C(=O)N[C@@H]1[C@H]2CC[C@H](C2)[C@@H]1C(=O)NCC(C)(C)C(F)(F)F [Example 624] | 12 | 16 | 3.3 | 7.9 | 1000 (≈ 594 µg/mL) | 113 | 26 |  |  |  |  |
| CCC(C)(C)CNC(=O)[C@H]1CCC[C@H]1NC(=O)c1cc(O[C@H]2CC[C@@](C)(C(=O)O)CC2)c(F)cc1OC [Example 58, (1S,4s)-4-(5-(((1R,2S)-2-((2,2-Dimethylbutyl)carbamoyl)cyclopentyl)carbamoyl)-2-fluoro-4-methoxyphenoxy)-1-methylcyclohexane-1-carboxylic acid] | 7 | 6.5 | 1.9 | 19 | > 1000 | 99 | 260 |  |  |  |  |
| COc1cc(F)c(O[C@H]2CC[C@@H](C(=O)O)CC2)cc1C(=O)N[C@H]1[C@@H](C(=O)Nc2ccc(F)c(C(F)(F)F)c2)[C@@H]2C=C[C@H]1C2 (single isomer, unassigned) [Example 498] | 0.86 | 23 | 7.7 | 17 | > 980 | 113 | > 30 |  |  |  |  |
| COc1cc(C#N)c(OC2CCC(C)(C(=O)O)CC2)cc1C(=O)NC1C(C(=O)NCC2(C)CCC2)C2CCC1N2CCC(F)(F)F (single isomer, unassigned) [Example 536, (1R,4s)-4-(2-Cyano-4-methoxy-5-(((1S*,2S*,3R*,4R*)-3-(((1-methylcyclobutyl)methyl)carbamoyl)-7-(3,3,3-trifluoropropyl)-7-azabicyclo[2.2.1]heptan-2-yl)carbamoyl)phenoxy)-1-methylcyclohexane-1-carboxylic acid] | 3.3 |  |  |  | 420 (≈ 272 µg/mL) | 97 |  | 250 | 130 | 43 | 5.1 |
| COc1cc(F)c(O[C@H]2CC[C@@H](C(=O)O)CC2)cc1C(=O)N[C@@H]1[C@H]2CC[C@H](C2)[C@@H]1C(=O)Nc1ccccc1 [Example 201, (1S,4s)-4-(2-Fluoro-4-methoxy-5-(((1S,2R,3S,4R)-3-(phenylcarbamoyl)bicyclo[2.2.1]heptan-2-yl)carbamoyl)phenoxy)cyclohexane-1-carboxylic acid] | 1.6 | 23 | 7.6 | 190 | 940 (≈ 493 µg/mL) | 98 | 7200 |  |  |  |  |
| CCC(CC)[C@H](C)NC(=O)[C@H]1[C@@H]2CC[C@@H](C2)[C@H]1NC(=O)c1cc(O[C@H]2CC[C@@](C)(C(=O)O)CC2)c(F)cc1OC (single isomer, unassigned) [Example 144, (1S,4s)-4-(5-(((1S,2R,3S,4R)-3-(((R*)-3-Ethylpentan-2-yl)carbamoyl)bicyclo-[2.2.1]heptan-2-yl)carbamoyl)-2-fluoro-4-methoxyphenoxy)-1-methylcyclohexane-1-carboxylic acid] | 3 | 240 | 17 | 29 | 29 (≈ 16.3 µg/mL) | 106 | 93 |  |  |  |  |
